pIC50: −log10 of the molar value. “And” between values parts separate entries of the source, which are not always exact repeats. Equal entries are not always repeated. Where two headings read alike, the source gives them in different places.
Tests used:
CYP2D6 = CYP2D6 (Homo sapiens, UniProt P10635); assay: biochemical
obese rats [1] = assay: Hepatic serum transaminase level in obese rats; format: in vivo, rat; conditions: 5 mg/kg i.p. 15 days
Description: (§1) All the experiments were carried out in obese (fa/fa) and thin (Fa/?) male Zucker rats 8-9 weeks of age. The animals were placed in individual cages in a room with controlled temperature, humidity and lighting (light/darkness cycles of 12 hours), and with free access to food and water (standard laboratory diet).
(§2) OLHHA was dissolved in a vehicle containing 5% Tween 80 in saline and intraperitoneally (i.p.) administered at a dose of 5 mg/kg (volume of 1 ml/kg body weight) at the beginning of the light cycle (9:00 am-10:00 am) for 15 consecutive days. Two hours after the last injection, the animals were euthanized using sodium pentobarbital (50 mg/kg, i.p.) and blood and liver samples were extracted. The blood was centrifuged at 2100×g for 8 minutes at 4° C. and the obtained plasma was kept at −80° C. for subsequent analysis. The liver samples were also stored at −80° C.
Commercial kits were used for determining hepatic serum transaminases and they were analyzed in a Hitachi 737 automatic biochemistry analyzer.

obese rats [2] = assay: Circulating pro-inflammatory cytokine level in obese rats (ELISA); format: in vivo, rat; conditions: 5 mg/kg i.p. 15 days
Description: as §1, §2
Circulating IL-6 and TNF-α levels were measured by means of ELISAs using commercial kits (Abcam).

[3] = tested on: liver of obese Zucker rats; assay: Protein levels of lipid metabolism enzymes in the liver of obese Zucker rats; format: in vivo, rat; conditions: change seen in mRNA (reduction)
Description: as §1, §2

liver of Zucker rats = assay: Gene expression (RT-qPCR) in the liver of Zucker rats; format: in vivo, rat
Description: as §1, §2
For isolating total RNA from the liver, the samples were homogenized in Trizol and then purified using Qiagen RNeasy Minelute Cleanup Kit (selectively eliminates most molecules smaller than 200 nucleotides), also including a DNAse treatment. The total mRNA concentration was quantified using a spectrophotometer. In all the cases, the A260/280 ratio was between 1.8 and 2. Complementary DNA synthesis was carried out by reverse transcription using the Transcriptor Reverse Transcriptase kit (Transcriptor RT, Roche Diagnostic). For real-time PCR (RT-qPCR), an ABI PRISM® 7300 Real-Time PCR System (Applied Biosystems) and TaqMan probes were used. The single-product amplification was confirmed by means of analyzing the melting curves. The values of each sample were normalized with respect to the beta-actin constitutive gene. The relative quantification was calculated by means of the ΔΔCt method and normalized to the control group. The Taqman probes were obtained from the rat genome database of Applied Biosystems (http://bioinfo.appliedbiosystems.com/genome-database/gene-expression.html): […]

CYP2C9 = CYP2C9 (Homo sapiens, UniProt P11712); assay: P450 cytochrome inhibition fluorometric assay CYP2C9; format: in vitro ADME
Sequence of CYP2C9 (P11712 whole entry): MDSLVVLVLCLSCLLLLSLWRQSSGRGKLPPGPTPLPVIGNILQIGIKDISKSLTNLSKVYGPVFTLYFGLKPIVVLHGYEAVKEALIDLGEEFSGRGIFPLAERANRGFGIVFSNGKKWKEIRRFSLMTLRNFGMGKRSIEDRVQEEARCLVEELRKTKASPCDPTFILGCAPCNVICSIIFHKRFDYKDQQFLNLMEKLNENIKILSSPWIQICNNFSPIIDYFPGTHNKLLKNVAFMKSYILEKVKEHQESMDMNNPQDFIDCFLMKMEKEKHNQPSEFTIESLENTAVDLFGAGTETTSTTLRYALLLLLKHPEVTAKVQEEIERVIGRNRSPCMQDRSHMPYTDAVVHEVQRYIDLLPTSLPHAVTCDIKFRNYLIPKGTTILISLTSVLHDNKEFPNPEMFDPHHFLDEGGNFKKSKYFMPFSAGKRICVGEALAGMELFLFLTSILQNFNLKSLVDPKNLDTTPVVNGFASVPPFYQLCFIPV
Description: However, most human CYPs tolerate acetonitrile. […] OLHHA was tested in triplicate.

[4] = tested on: liver of obese Zucker rats; assay: Histological evaluation of fatty liver and Caspase-3 in obese Zucker rats; format: in vivo, rat
Description: as §1, §2
The histological analysis of the livers of obese Zucker rats treated with the vehicle or with OLHHA confirmed the biochemistry total fat quantification results.

[5] = Body weight gain and food intake in Zucker rats, chronic treatment; format: in vivo, rat; conditions: 5 mg/kg i.p. daily 15 days
Description: as §1, §2
Animals received an injection (i.p.) of vehicle or OLHHA (5 mg/kg) daily for 15 consecutive days. For this experiment, 8 rats were used per group. The total body weight gain (g) and the accumulated food intake (g/kg of body weight) were evaluated daily.

Zucker rats = assay: Liver fat content and plasma triglyceride level of Zucker rats; format: in vivo, rat; conditions: obese Zucker rats, 5 mg/kg once a day 15 days
Description: as §1, §2
The total liver fat content and the plasma triglyceride level were evaluated in thin and obese Zucker rats after a 15-day treatment with OLHHA (5 mg/kg, once a day). The samples for lipid analysis were obtained 2 hours after the last injection.
The Bligh & Dyer method (Bligh and Dyer, 1959) was followed for liver fat quantification. […] The fat content was expressed as % of tissue weight. […]

hERG channel = biological target: T1, hERG channel (Homo sapiens, UniProt Q12809); assay: hERG channel functional assay (FluxOR thallium fluorescence); format: cell-based; conditions: HEK-293 cells expressing hERG
T1 construct: expressed in transfected cells; host or cells: HEK293
T1 sequence (Q12809 whole entry): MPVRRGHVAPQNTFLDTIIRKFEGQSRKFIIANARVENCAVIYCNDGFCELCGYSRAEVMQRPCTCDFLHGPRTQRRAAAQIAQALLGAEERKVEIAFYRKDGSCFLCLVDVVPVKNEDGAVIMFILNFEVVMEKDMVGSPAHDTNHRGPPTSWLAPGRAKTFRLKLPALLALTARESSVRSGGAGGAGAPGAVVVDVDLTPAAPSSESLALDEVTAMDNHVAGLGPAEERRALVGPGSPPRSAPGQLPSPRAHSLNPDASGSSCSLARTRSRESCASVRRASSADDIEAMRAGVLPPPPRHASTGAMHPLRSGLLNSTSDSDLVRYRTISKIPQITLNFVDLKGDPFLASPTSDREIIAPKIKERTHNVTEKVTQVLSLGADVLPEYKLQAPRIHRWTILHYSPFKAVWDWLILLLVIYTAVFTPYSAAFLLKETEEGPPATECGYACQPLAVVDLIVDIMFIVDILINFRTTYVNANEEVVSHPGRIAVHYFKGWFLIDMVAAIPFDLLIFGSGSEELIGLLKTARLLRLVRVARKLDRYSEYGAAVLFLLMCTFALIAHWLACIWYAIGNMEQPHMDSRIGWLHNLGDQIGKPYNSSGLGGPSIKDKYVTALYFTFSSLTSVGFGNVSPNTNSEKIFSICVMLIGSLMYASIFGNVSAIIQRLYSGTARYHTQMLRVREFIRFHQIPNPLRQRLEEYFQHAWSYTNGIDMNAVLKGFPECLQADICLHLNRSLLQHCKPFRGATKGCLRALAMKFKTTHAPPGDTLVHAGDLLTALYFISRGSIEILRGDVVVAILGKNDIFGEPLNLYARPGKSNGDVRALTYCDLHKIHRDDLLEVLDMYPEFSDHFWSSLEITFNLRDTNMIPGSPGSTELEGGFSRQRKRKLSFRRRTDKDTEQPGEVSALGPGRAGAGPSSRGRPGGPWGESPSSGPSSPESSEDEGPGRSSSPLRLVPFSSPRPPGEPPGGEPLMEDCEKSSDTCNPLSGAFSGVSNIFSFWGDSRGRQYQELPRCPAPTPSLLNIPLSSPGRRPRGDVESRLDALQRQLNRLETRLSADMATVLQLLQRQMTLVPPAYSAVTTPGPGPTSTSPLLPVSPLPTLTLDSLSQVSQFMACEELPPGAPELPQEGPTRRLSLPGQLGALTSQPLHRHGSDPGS
Description: The hERG channel assay was used to identify if OLHHA may cause cardiotoxicity (FIG. 8). […] FluxOR™ is protected by AM groups which prevent fluorescence outside the cell. When it enters the cell, esterases in the cytosol remove the AM groups, and FluxOR™ will be converted to its active form in which it is capable of binding to thallium, which moves into the cytoplasm through the hERG channel, resulting in the emission of fluorescence. HEK293 cells expressing the hERG channel were seeded in poly-D-lysine-treated, black 96-well plates and incubated for 24 hours. […] Next, 20 μl of FluxOR™ dissolved in the assay buffer were added. The fluorochrome was incubated with the cells for 1 hour at room temperature. Next, the plates were washed with 50 μl of assay buffer and the compound OLHHA at a dilution of 1:200 (2 μl of OLHHA/400 μl of assay buffer) was added using an EP3 station. […] The plates were incubated with OLHHA for 30 minutes and then read in a […], which added 5 μl of stimulation buffer (Tl2SO4+K2SO4), and read the fluorescence for 120 s, which allowed analyzing channel kinetics.

obese rats [6] = assay: Kidney function-related plasma protein level in obese rats; format: in vivo, rat; conditions: 5 mg/kg i.p. 15 days
Description: as §1, §2
Commercial kits were used for determining serum creatinine and urea and they were analyzed in a Hitachi 737 automatic biochemistry analyzer.

CYP3A4 = CYP3A4 (Homo sapiens, UniProt P08684); assay: biochemical
Sequence of CYP3A4 (P08684 whole entry): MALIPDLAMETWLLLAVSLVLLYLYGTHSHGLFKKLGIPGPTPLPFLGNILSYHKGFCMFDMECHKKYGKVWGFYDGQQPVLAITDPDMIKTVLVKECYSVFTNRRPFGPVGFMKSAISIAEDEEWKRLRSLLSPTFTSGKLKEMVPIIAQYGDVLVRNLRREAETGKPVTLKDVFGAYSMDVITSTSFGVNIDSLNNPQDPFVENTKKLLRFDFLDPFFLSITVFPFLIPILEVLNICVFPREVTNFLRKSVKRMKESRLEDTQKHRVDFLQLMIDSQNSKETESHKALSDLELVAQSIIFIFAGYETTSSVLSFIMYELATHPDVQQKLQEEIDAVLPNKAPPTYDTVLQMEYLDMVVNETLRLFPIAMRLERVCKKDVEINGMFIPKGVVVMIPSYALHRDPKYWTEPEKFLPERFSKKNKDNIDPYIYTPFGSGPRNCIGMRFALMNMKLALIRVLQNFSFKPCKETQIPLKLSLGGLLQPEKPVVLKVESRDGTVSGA

[7] = obese Zucker rats liver, immunohistochemistry
[8] = obese Zucker rats, chronic treatment, vs vehicle

Sequence of CYP2D6 (P10635 whole entry): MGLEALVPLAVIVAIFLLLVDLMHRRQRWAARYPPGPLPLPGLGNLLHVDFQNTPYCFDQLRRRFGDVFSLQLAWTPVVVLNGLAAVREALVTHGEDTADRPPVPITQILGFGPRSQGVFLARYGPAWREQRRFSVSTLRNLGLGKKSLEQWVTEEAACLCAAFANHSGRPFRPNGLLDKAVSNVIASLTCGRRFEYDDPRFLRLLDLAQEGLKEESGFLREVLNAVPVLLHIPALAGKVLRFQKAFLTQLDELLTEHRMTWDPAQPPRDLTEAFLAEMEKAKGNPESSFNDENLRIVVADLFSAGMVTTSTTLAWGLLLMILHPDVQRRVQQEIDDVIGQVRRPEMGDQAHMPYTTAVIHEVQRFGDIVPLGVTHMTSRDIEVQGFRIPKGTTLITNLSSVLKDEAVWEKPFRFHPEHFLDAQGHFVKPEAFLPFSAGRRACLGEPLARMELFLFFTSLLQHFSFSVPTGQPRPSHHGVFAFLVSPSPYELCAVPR

CCCCCCCC/C=C\CCCCCCCC(=O)NC(C)Cc1ccc(O)c(O)c1 (stereo not shown) [OLHHA, N-(1-(3,4-dihydroxyphenyl)propan-2-yl)oleamide]
pIC50 (CYP2D6): 4.63 and < 5.00 | aspartate aminotransferase (AST) level (obese rats [1]; not statistically significant): reduction | alanine aminotransferase (ALT) level (obese rats [1]; statistically significant (p<0.05)): reduction | gamma-glutamyl transpeptidase (GGt) (obese rats [1]; vs vehicle): no effect was observed | plasma IL6 levels (obese rats [2]): no changes were detected | TNF-α level (obese rats [2]; did not reach a degree of significance): drop | FAS protein expression level [3]: confirmed at the protein expression level | HMG-CoAR protein expression level [3]: confirmed at the protein expression level | ACOX mRNA expression (liver of Zucker rats; 5 mg/kg i.p. 15 days): significant increase | FAS mRNA expression (fatty acid biosynthesis) (liver of Zucker rats; 5 mg/kg i.p. 15 days): significant reduction | HMG-CoAR mRNA expression (cholesterol biosynthesis) (liver of Zucker rats; 5 mg/kg i.p. 15 days): significant reduction | INSIG2 mRNA expression (liver of Zucker rats; 5 mg/kg i.p. 15 days): significantly increased | NAPE-PLD mRNA expression (liver of Zucker rats; 5 mg/kg i.p. 15 days): significantly reduced | L-FABP mRNA level (liver of Zucker rats; chronic treatment): increased | pIC50 (CYP2C9; degree of inhibition, read-out: CYP2C9 Inhibitor category): 5.00 to 6.00 | pIC50 (CYP2C9; fluorometric assay, maximum dose 105 μM, read-out: CYP2C9 IC50): 5.17 | expression of activated Caspase-3 [4, 7]: reduced the expression | expression of total Caspase-3 [4, 7]: reduced the expression | apoptotic activity in liver [4, 8]: reduction in apoptotic activity | liver fat content (hematoxylin-eosin and oil red staining) [4, 8]: reduction in liver fat content | accumulated food intake ([5]; obese Zucker rats): did not cause any effect | body weight gain ([5]; obese Zucker rats): did not cause any effect | accumulated food intake ([5]; thin Zucker rats, starting on the fifth day, vs vehicle): significant reduction | body weight gain ([5]; thin Zucker rats, vs vehicle): significant inhibition | circulating triglycerides (Zucker rats; five-fold increase in obese vs thin): prevented these increases | total liver fat content (Zucker rats; three-fold increase in obese vs thin): prevented these increases | pIC50 (hERG channel; maximum concentration 150 μM): < 3.82 | creatinine levels (obese rats [6]): did not affect | urea levels (obese rats [6]; vs vehicle, p<0.001): significant reduction | pIC50 (CYP3A4): 4.83 and < 5.00

CC(C)COCC(CN(Cc1ccccc1)c1ccccc1)N1CCCC1 (stereo not shown) [bepridil, reference compound]
IC50 at 30 min (hERG channel; human, HEK293 cells expressing the hERG channel, pH 7.4, probe FluxOR fluorescent dye / thallium ions, standard control inhibitors, unit M): 2.2 µM
